Experiments:
[1] = system: ovarian cancer cells (PA-1); assay: Cancer cell line growth inhibition (SRB assay); format: cell-based; conditions: Homo sapiens, PA-1; read-out: Cancer Cell Line GI50 Range PA-1
Breast cancer cells = assay: Cancer cell line growth inhibition (SRB assay); format: cell-based; conditions: Homo sapiens; MDA-MB-468; read-out: Cancer Cell Line GI50 Range MDA-MB-468
human PLK4 = molecular target: T1, human PLK4 (Homo sapiens, UniProt O00444); assay: PLK4 inhibition assay (indirect ELISA); format: biochemical; conditions: 15 μM ATP
T1 construct: amino terminal GST fusion of residues 1-391 of human PLK4; made in house; host or cells: E. coli
T1 sequence (O00444 1-391): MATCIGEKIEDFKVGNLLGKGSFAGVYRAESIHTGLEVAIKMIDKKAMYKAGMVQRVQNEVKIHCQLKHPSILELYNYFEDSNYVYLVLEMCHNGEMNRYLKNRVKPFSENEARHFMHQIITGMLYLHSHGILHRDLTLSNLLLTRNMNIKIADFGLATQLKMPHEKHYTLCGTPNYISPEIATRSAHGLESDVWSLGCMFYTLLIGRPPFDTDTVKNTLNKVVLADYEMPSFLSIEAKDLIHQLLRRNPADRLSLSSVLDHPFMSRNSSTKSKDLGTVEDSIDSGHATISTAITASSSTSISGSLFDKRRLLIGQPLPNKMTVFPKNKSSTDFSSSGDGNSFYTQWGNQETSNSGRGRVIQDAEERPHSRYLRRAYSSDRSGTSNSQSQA
Procedure: Active PLK4 was purified from an E. coli expression system as an amino terminal GST fusion of residues 1-391 of human PLK4. The protein was purified from clarified cell extracts after induction at 15° C. overnight using glutathione sepharose, gel permeation chromatography, and ion exchange (Resource Q). The resulting protein was dephosphorylated with lambda phosphatase (NEB cat# P0753), and resolved from the phosphatase using gluthione sepharose. The dephosphorylated GST-PLK4 was stored in aliquots at −80° C. until use.
PLK4 activity was measured using an indirect ELISA detection system. Dephosphorylated GST-PLK4 (4 nM) was incubated in the presence of 15 μM ATP (Sigma cat# A7699), 50 mM HEPES-[…] pH 7.4, 10 mM MgCl2, 0.01% Brij 35 (Sigma cat# 03-3170), in a 96 well microtitre plate pre-coated with MBP (Millipore cat#30-011). The reaction was allowed to proceed for 30 minutes, followed by 5 washes of the plate with Wash Buffer (50 mM TRIS-Cl pH 7.4 and 0.2% Tween 20), and incubation for 30 minutes with a 1:3000 dilution of primary antibody (Cell Signaling cat# 9381). The plate was washed 5 times with Wash Buffer, incubated for 30 minutes in the presence of secondary antibody coupled to horse radish peroxidase (BioRad cat# 1721019, 1:3000 concentration), washed an additional 5 times with Wash Buffer, and incubated in the presence of TMB substrate (Sigma cat# T0440). The colourimetric reaction was allowed to continue for 5 minutes, followed by addition of stop solution (0.5 N sulphuric acid), and quantified by detection at 450 nm with either a monochromatic or filter based plate reader (Molecular Devices M5 or Beckman DTX880, respectively).
Compound inhibition was determined at either a fixed concentration (10 μM) or at a variable inhibitor concentration (typically 50 μM to 0.1 μM in a 10 point dose response titration). Compounds were pre-incubated in the presence of enzyme for 15 minutes prior to addition of ATP and the activity remaining quantified using the above described activity assay. The % Inhibition of a compound was determined using the following formula: % Inhibition=100×(1−(experimental value−background value)/(high activity control−background value)). The IC50 value was determined using a non-linear 4 point logistic curve fit (XLfit4, IDBS) with the formula: (A+(B/(1+((x/C)^D)))), where A=background value, B=range, C=inflection point, D=curve fit parameter.

[2] = system: colon cancer cells (HCT116); assay: Cancer cell line growth inhibition (SRB assay); format: cell-based; conditions: Homo sapiens, HCT-116; read-out: Cancer Cell Line GI50 Range HCT116
human TTK = molecular target: T2, human TTK (Homo sapiens, UniProt P33981); assay: TTK inhibition assay (indirect ELISA); format: biochemical; conditions: read-out: TTK IC50 Range
T2 construct: amino terminal GST fusion of full length human TTK; purchased Invitrogen
T2 sequence (P33981 1-857): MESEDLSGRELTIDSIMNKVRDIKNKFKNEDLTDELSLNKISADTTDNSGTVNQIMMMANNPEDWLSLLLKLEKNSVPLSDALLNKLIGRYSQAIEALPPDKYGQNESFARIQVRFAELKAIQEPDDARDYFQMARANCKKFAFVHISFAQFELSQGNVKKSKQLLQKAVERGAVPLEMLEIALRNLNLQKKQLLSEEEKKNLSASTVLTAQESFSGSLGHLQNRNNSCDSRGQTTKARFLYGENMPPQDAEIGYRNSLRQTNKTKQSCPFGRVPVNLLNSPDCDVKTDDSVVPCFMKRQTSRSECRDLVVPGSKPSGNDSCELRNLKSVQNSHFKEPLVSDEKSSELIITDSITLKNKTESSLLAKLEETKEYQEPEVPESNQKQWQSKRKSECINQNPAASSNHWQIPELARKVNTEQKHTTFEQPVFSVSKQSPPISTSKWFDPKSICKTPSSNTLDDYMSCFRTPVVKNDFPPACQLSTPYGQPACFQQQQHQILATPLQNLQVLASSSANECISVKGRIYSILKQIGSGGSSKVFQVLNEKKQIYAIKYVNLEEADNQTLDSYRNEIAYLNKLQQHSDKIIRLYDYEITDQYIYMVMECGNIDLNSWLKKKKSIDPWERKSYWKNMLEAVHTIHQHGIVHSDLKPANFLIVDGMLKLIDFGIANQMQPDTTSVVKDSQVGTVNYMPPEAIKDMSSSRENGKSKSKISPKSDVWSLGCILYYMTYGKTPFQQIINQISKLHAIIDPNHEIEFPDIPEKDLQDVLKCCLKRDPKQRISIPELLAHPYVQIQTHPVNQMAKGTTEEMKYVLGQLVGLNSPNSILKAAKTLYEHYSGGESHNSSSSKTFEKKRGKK

Row | SMILES | GI50 [1] | GI50 (Breast cancer cells) | IC50 (human PLK4) | GI50 [2] | IC50 (human TTK)
1 | CC(C)[C@H](NC(=O)c1ccc2[nH]nc(-c3ccc4c(c3)CCC3(CCN(C)CC3)O4)c2c1)c1ccccc1Cl [Example A250, (S)-N-(1-(2-chlorophenyl)-2-methylpropyl)-3-(1′-methylspiro[chroman-2,4′-piperidin]-6-yl)-1H-indazole-5-carboxamide] | < 100 nM | 100 to 500 nM | < 50 nM | < 100 nM | < 100 nM
2 | CN1CCC2(CCc3cc(-c4n[nH]c5ccc(C(=O)N[C@H](c6ccccn6)C6CCCC6)cc45)ccc3O2)CC1 [Example A253, (S)-N-(cyclopentyl(pyridin-2-yl)methyl)-3-(1′-methylspiro[chroman-2,4′-piperidin]-6-yl)-1H-indazole-5-carboxamide] | < 100 nM | 100 to 500 nM | < 50 nM | < 100 nM | < 100 nM
3 | CCC(CC)C(NC(=O)c1ccc2[nH]nc(-c3ccc(O[C@H]4C[C@H]5CC[C@@H](C4)N5C=O)cc3)c2c1)c1ccccn1 (stereo partly drawn) [Example A342, N-(2-ethyl-1-(pyridin-2-yl)butyl)-3-(4-(((1R,3R,5S)-8-formyl-8-azabicyclo[3.2.1]octan-3-yl)oxy)phenyl)-1H-indazole-5-carboxamide] | < 100 nM | < 100 nM | < 50 nM | < 100 nM | < 100 nM
4 | CN1C2CCC1CC(Oc1ccc(-c3n[nH]c4ccc(C(=O)N[C@H](c5ccsc5)C5CCCC5)cc34)cc1)C2 (stereo partly drawn) [Example A248, N-((S)-cyclopentyl(thiophen-3-yl)methyl)-3-(4-(((1R,3R,5S)-8-methyl-8-azabicyclo[3.2.1]octan-3-yl)oxy)phenyl)-1H-indazole-5-carboxamide] | 100 to 500 nM | 100 to 500 nM | < 50 nM | 100 to 500 nM | < 100 nM
5 | C[C@@H](O)CN1CCC(Oc2ccc(-c3n[nH]c4ccc(C(=O)N[C@H](c5ccsc5)C5CC5)cc34)cc2)CC1 [Example A220, N-((S)-cyclopropyl(thiophen-3-yl)methyl)-3-(4-((1-((R)-2-hydroxypropyl)piperidin-4-yl)oxy)phenyl)-1H-indazole-5-carboxamide] | < 100 nM | 100 to 500 nM | < 50 nM | 100 to 500 nM | < 100 nM
6 | CC(C)(C)C[C@H](NC(=O)c1ccc2[nH]nc(-c3ccc(N4CCN(C5COC5)CC4)cc3)c2c1)c1ccccc1 [Example A372, (S)-N-(3,3-dimethyl-1-phenylbutyl)-3-(4-(4-(oxctan-3-yl)piperazin-1-yl)phenyl)-1H-indazole-5-carboxamide] | < 100 nM | 100 to 500 nM | < 50 nM | < 100 nM | < 100 nM
7 | CN1CCC2(CCc3cc(-c4n[nH]c5ccc(C(=O)N[C@H](c6ccccc6)C6CC6)cc45)ccc3O2)CC1 [Example A249, (S)-N-(cyclopropyl(phenyl)methyl)-3-(1′-methylspiro[chroman-2,4′-piperidin]-6-yl)-1H-indazole-5-carboxamide] | 100 to 500 nM | 100 to 500 nM | < 50 nM | 100 to 500 nM | < 100 nM
8 | CN1C2COCC1CC(Oc1ccc(-c3n[nH]c4ccc(C(=O)NC(c5ccccc5)C5CC5)cc34)cc1)C2 [Example A387, N-(cyclopropyl(phenyl)methyl)-3-(4-(((1R,5S,7s)-9-methyl-3-oxa-9-azabicyclo[3.3.1]nonan-7-yl)oxy)phenyl)-1H-indazole-5-carboxamide] | < 100 nM | > 500 nM | < 50 nM | < 100 nM | < 100 nM
9 | O=C(N[C@@H](c1ccsc1)C1CCCC1)c1ccc2[nH]nc(-c3ccc(OC4CCN(CCO)CC4)cc3)c2c1 [Example A219, (R)-N-(cyclopentyl(thiophen-3-yl)methyl)-3-(4-((1-(2-hydroxyethyl)piperidin-4-yl)oxy)phenyl)-1H-indazole-5-carboxamide] | < 100 nM | 100 to 500 nM | < 50 nM | 100 to 500 nM | < 100 nM
10 | CC(C)CC(NC(=O)c1ccc2[nH]nc(-c3ccc(OC4CN(C5COC5)C4)cc3)c2c1)c1ccccc1Cl (centres unmarked) [Example A357, N-(1-(2-chlorophenyl)-3-methylbutyl)-3-(4-((1-(oxetan-3-yl)azetidin-3-yl)oxy)phenyl)-1H-indazole-5-carboxamide] | 100 to 500 nM | 100 to 500 nM | < 50 nM | 100 to 500 nM | < 100 nM
11 | CN1[C@@H]2CC[C@H]1C[C@@H](Oc1ccc(-c3n[nH]c4ccc(C(=O)NCC5(c6cccs6)CCOCC5)cc34)cc1)C2 [Example A445, 3-(4-(((1R,3R,5S)-8-methyl-8-azabicyclo[3.2.1]octan-3-yl)oxy)phenyl)-N-((4-(thiophen-2-yl)tetrahydro-2H-pyran-4-yl)methyl)-1H-indazole-5-carboxamide] | < 100 nM | 100 to 500 nM | < 50 nM | < 100 nM | < 100 nM
12 | CC(C)C[C@H](NC(=O)c1ccc2[nH]nc(-c3ccc(N4C5COCC4CC(O)C5)cc3)c2c1)c1ccccc1Cl (stereo partly drawn) [Example A424, N-((S)-1-(2-chlorophenyl)-3-methylbutyl)-3-(4-((1R,5S,7R)-7-hydroxy-3-oxa-9-azabicyclo[3.3.1]nonan-9-yl)phenyl)-1H-indazole-5-carboxamide] | < 100 nM | < 100 nM | < 50 nM | < 100 nM | < 100 nM
13 | CC(C)C[C@H](NC(=O)c1ccc2[nH]nc(-c3ccc(N4CCN(C5COC5)CC4)cc3)c2c1)c1ccccc1F [Example A275, (S)-N-(1-(2-fluorophenyl)-3-methylbutyl)-3-(4-(4-(oxetan-3-yl)piperazin-1-yl)phenyl)-1H-indazole-5-carboxamide] | < 100 nM | < 100 nM | < 50 nM | < 100 nM | < 100 nM
